From patent US8168651B2, “Protein kinase modulators” (Cylene Pharmaceuticals, Inc., priority 2008, dated 2012)

Tests used:
Assay in all cases: Standardized radiometric kinase assays, percentage of activity at 0.5 μM;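 also: Read-out is ³³P-labelled substrate protein phosphorylated by each kinase, captured on filters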
[1] = biological target: each individual kinase of the panel (Homo sapiens, UniProt P19784)
[2] = biological target: each individual kinase of the panel (Homo sapiens, UniProt O96017, R145W)
[3] = biological target: each individual kinase of the panel (Homo sapiens, UniProt Q16620)
each individual kinase of the panel (Homo sapiens, UniProt Q16620), sequence (Q16620 32-822 limits assumed): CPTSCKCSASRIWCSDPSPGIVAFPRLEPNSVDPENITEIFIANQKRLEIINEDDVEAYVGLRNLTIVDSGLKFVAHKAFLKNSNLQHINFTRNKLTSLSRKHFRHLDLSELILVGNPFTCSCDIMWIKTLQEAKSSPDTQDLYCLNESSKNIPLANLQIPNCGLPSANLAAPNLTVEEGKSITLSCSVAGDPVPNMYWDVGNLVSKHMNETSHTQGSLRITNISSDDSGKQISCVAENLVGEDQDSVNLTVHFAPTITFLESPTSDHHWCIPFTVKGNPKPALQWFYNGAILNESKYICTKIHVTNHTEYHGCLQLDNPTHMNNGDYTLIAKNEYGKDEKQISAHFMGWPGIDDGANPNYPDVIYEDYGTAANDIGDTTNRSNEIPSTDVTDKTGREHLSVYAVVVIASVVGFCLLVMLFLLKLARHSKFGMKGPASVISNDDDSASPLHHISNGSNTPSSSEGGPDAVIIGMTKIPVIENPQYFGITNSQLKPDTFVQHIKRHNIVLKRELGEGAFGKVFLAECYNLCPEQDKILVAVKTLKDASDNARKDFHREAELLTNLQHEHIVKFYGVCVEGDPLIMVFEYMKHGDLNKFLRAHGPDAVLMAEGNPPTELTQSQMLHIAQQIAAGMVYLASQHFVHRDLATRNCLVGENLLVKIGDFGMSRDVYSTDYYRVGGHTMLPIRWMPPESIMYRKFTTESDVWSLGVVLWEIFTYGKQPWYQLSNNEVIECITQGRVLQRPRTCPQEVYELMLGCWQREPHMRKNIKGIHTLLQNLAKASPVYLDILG

[4] = biological target: each individual kinase of the panel (Homo sapiens, UniProt Q96PF2)
[5] = biological target: each individual kinase of the panel (Homo sapiens, UniProt P07948)
[6] = biological target: each individual kinase of the panel (Homo sapiens, UniProt Q9BXA7)
[7] = biological target: each individual kinase of the panel (Homo sapiens, UniProt O00418)
each individual kinase of the panel (Homo sapiens, UniProt O00418), sequence (O00418 2-725 limits assumed): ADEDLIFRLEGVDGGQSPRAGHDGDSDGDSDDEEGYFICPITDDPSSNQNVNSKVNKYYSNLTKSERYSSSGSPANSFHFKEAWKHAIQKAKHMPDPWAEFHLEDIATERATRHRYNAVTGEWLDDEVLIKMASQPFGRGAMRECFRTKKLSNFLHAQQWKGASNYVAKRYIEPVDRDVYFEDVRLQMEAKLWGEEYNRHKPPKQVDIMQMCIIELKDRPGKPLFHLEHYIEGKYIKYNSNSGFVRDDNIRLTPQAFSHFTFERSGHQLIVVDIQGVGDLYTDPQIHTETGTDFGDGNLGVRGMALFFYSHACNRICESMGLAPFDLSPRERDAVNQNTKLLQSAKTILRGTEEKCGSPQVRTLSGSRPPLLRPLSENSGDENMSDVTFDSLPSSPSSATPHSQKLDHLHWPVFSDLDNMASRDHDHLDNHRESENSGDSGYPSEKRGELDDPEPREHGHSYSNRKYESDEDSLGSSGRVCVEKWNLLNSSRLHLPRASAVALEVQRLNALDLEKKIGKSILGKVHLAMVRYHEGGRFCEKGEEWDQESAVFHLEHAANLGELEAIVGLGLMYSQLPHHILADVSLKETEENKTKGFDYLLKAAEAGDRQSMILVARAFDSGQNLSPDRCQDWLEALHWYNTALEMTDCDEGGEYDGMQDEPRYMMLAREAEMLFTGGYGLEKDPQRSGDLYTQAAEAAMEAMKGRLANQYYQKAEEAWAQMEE

[8] = biological target: each individual kinase of the panel (Homo sapiens, UniProt P53778)
[9] = biological target: each individual kinase of the panel (Mus musculus, UniProt P16277)
each individual kinase of the panel (Mus musculus, UniProt P16277), sequence (P16277 2-499 limits assumed): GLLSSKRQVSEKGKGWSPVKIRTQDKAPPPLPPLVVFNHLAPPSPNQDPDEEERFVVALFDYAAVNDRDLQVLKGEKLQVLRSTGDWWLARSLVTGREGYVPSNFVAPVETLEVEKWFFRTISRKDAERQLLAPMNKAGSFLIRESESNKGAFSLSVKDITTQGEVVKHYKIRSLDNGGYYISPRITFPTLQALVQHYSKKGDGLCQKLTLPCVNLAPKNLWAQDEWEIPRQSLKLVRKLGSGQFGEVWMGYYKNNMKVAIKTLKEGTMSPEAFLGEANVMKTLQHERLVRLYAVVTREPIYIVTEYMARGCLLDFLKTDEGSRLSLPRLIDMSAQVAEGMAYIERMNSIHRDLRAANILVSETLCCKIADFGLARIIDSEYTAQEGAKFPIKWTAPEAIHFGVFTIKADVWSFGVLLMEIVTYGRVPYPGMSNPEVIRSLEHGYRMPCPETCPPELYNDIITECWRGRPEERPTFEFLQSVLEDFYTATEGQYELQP

[10] = biological target: each individual kinase of the panel (Homo sapiens, UniProt Q04759)
[11] = biological target: each individual kinase of the panel (Homo sapiens, UniProt Q12866)
each individual kinase of the panel (Homo sapiens, UniProt Q12866), sequence (Q12866 21-999 limits assumed): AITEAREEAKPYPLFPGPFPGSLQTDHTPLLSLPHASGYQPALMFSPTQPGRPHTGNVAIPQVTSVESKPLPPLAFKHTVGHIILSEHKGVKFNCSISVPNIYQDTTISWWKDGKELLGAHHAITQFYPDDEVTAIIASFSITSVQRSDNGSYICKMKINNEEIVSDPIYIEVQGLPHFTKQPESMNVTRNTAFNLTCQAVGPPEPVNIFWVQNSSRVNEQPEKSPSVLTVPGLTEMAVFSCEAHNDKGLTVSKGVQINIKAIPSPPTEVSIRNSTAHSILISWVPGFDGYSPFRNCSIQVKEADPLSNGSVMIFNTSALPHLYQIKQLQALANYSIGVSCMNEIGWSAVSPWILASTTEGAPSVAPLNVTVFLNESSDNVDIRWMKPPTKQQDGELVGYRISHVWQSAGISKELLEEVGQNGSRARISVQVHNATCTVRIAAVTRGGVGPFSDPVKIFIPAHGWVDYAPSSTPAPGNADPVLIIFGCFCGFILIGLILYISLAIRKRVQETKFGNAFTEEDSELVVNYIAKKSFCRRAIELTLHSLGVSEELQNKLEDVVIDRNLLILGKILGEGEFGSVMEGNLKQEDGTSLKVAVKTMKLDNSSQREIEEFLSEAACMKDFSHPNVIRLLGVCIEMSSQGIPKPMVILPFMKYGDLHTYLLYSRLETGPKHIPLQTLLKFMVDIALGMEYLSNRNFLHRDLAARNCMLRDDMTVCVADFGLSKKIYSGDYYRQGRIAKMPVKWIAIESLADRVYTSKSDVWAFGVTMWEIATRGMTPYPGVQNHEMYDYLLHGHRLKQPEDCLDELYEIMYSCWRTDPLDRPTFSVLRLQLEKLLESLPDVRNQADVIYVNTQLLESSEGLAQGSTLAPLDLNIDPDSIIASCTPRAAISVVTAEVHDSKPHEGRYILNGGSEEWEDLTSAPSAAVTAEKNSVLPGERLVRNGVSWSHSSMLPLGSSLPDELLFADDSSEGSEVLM

[12] = biological target: each individual kinase of the panel (Homo sapiens, UniProt Q13237)
each individual kinase of the panel (Homo sapiens, UniProt Q13237), sequence (Q13237 2-762 limits assumed): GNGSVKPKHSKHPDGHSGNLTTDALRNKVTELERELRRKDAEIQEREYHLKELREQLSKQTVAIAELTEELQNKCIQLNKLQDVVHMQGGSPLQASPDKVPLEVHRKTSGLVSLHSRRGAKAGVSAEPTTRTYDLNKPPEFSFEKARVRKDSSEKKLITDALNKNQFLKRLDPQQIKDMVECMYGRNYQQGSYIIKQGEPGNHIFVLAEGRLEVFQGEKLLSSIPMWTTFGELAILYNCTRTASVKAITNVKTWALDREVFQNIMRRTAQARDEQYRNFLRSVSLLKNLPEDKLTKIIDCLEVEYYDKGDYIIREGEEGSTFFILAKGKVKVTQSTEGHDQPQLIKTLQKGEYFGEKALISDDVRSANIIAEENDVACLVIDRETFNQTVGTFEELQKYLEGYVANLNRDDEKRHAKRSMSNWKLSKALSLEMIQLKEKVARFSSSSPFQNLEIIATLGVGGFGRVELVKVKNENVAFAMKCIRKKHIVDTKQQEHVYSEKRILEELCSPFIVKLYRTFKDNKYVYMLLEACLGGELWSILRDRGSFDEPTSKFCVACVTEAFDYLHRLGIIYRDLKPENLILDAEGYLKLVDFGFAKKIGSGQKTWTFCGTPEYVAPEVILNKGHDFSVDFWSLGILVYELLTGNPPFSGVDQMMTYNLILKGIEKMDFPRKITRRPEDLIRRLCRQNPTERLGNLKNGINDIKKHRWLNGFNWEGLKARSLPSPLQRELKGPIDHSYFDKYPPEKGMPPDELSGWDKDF

[13] = biological target: each individual kinase of the panel (Homo sapiens, UniProt P52333)
[14] = biological target: each individual kinase of the panel (Homo sapiens, UniProt Q96RG2)
[15] = biological target: each individual kinase of the panel (Homo sapiens, UniProt Q9Y3S1)
[16] = biological target: each individual kinase of the panel (Homo sapiens, UniProt P80192)
[17] = biological target: each individual kinase of the panel (Homo sapiens, UniProt Q9HBH9)
[18] = biological target: each individual kinase of the panel (Homo sapiens, UniProt P05129)
[19] = biological target: each individual kinase of the panel (Homo sapiens, UniProt Q86Y07)
[20] = biological target: each individual kinase of the panel (Homo sapiens, UniProt O96017, I157T)
[21] = biological target: each individual kinase of the panel (Homo sapiens, UniProt P43250)
[22] = biological target: each individual kinase of the panel (Homo sapiens, UniProt Q9HBY8)
[23] = biological target: each individual kinase of the panel (Homo sapiens, UniProt P34947)
[24] = biological target: each individual kinase of the panel (Homo sapiens, UniProt P29322)
each individual kinase of the panel (Homo sapiens, UniProt P29322), sequence (P29322 28-1005 limits assumed): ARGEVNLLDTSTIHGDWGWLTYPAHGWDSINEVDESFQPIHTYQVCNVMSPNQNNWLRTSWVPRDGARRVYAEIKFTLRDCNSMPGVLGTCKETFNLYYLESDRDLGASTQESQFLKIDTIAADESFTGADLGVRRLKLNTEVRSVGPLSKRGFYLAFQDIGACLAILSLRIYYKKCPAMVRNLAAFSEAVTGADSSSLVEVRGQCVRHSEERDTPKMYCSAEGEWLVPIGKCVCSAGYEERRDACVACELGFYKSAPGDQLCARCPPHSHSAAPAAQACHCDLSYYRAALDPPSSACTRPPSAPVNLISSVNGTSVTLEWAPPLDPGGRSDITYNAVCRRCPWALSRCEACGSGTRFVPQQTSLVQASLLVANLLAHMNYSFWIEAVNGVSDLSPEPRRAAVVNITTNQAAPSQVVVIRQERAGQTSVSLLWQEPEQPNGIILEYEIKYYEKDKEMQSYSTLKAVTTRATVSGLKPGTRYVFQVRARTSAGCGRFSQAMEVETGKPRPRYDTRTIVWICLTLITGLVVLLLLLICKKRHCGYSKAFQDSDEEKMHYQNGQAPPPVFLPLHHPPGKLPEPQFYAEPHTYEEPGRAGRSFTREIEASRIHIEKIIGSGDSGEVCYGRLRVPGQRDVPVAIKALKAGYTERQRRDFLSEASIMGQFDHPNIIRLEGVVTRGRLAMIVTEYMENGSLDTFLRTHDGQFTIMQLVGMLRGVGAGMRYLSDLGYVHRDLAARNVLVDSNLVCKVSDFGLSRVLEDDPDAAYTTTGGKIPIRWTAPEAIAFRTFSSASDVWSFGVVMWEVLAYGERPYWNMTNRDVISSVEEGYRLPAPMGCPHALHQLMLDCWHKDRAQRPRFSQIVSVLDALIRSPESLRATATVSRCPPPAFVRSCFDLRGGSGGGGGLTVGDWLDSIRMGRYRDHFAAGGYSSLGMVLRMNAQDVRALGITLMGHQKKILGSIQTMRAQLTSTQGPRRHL

[25] = biological target: each individual kinase of the panel (Homo sapiens, UniProt O96017)
[26] = biological target: each individual kinase of the panel (Homo sapiens, UniProt O43318)

O=C(O)c1ccc2c(c1)nc(Nc1cccc(Cl)c1)c1ccncc12 [drawing 1136]
CK2 alpha 2 percentage of activity [1]: 103% | CHK2(R145W) (h) percentage of activity [2]: 6% | TRKB percentage of activity [3]: 24% | TSSK2 percentage of activity [4]: −11% | LYN percentage of activity [5]: 13% | TSSK1 percentage of activity [6]: −12% | eEF−2K(h) percentage of activity [7]: 3% | p38-gamma percentage of activity [8]: 21% | Blk(m) percentage of activity [9]: 14% | PRKCT percentage of activity [10]: −3% | MER percentage of activity [11]: 82% | PRKG2 percentage of activity [12]: −10% | JAK3 percentage of activity [13]: 37% | PASK percentage of activity [14]: 85% | WNK2 percentage of activity [15]: 4% | MLK1 percentage of activity [16]: 43% | Mnk2 percentage of activity [17]: 79% | PRKCG percentage of activity [18]: 6% | VRK2 percentage of activity [19]: −3% | CHK2(1157T) (h) percentage of activity [20]: 15% | GRK6 percentage of activity [21]: 44% | SGK2 percentage of activity [22]: 4% | GRK5 percentage of activity [23]: 74% | EPHA8 percentage of activity [24]: −10% | CHK2 percentage of activity [25]: 20% | TAK1 percentage of activity [26]: 4%
